In patent US20250295732A1, “COMPOSITIONS AND METHODS FOR ACTIVATING INNATE IMMUNITY” (Zoetis Services LLC, priority 2021, published 2025):

What was measured:
[1] = tested on: bovine monocyte-derived macrophages; assay: LPS-induced lactate production (LactateGlo); assay type: cell-based; conditions: CATH2 24 hr, removal, 3-day rest, LPS 24 hours; vs vehicle
Text: (§1) Peripheral blood mononuclear cells (PBMC) were isolated from bovine blood using ficoll gradients. Bovine monocytes were isolated from PBMC using magnetic assisted cell sorting to positively select for CD14+ cells using anti-human CD14 microbeads (Miltenyi Biotec). Purified bovine blood CD14+ monocytes were differentiated into macrophages using an M2-skewing differentiation factor (recombinant bovine M-CSF) over 7 days then exposed to CATH2 or a vehicle control in the presence of bovine casein to mimic aspects of the mammary gland for 24 hr. Following treatment, vehicle and drug were removed and cells were washed to eliminate residual drug and monocyte-derived macrophages were rested for 3 days in order to assess reprogramming. Following the rest period, a subset of vehicle- and CATH2-trained monocyte-derived macrophages were assessed for epigenetic and transcriptomic changes. The remaining cells were challenged with LPS or E. coli bioparticle labeled with pH-sensitive pHrodo green dye and key parameters for macrophage activation/immune response were assessed including glycolytic activity, surface marker expression, gene expression, cytokine production, phagocytosis, reactive nitrogen species production, and miRNA profiling.
Lactate levels in cell culture supernatant were quantified using LactateGlo® (Promega) according to manufacturer's instructions.

[2] = tested on: bovine monocyte-derived macrophages; assay: microRNASeq analysis; assay type: cell-based; conditions: CATH2 vs vehicle
Text: as §1
Bovine monocyte-derived macrophages were lysed in Buffer RLT with addition of (3-mercaptoethanol (QIAGEN) and stored at −80° C. until miRNA/mRNA isolations could be performed. Total RNA including miRNA was isolated from cell lysates using the miRNeasy Tissues/Cells Advanced kit (QIAGEN) following the manufacturer's instructions. mRNA and miRNA libraries were prepared using the TruSeq Stranded mRNA Library Prep Kit (Illumina) and QIAseq miRNA Library Kit, respectively (QIAGEN) according to the manufacturer's instructions. Libraries were run on the Illumina NextSeq550 System. Sequencing data were analyzed using CLC Genomics Workbench software and QIAGEN Ingenuity Pathway Analysis (IPA).

[3] = 3-day rest, 8-hour post-LPS, Experiment A
[4] = 3-day rest, 8-hour post-LPS, Experiment B
[5] = 3-day rest, 24-hour post-LPS, Experiment A
[6] = 3-day rest, 24-hour post-LPS, Experiment B
[7] = after 3-day rest, prior to LPS challenge

RFGRFLRKIRRFRPKVTITIQGSARFG [CATH2, cathelicidin 2 peptide]
LPS-induced lactate production in supernatant [1]: increased lactate production | bta-miR-146b Fold change [2, 3]: 2.85 | bta-miR-146b Log2 fold change [2, 3]: 1.51 | bta-miR-148a Fold change [2, 3]: −1.79 | bta-miR-148a Log2 fold change [2, 3]: −0.84 | bta-miR-181b Fold change [2, 3]: 1.60 | bta-miR-181b Log2 fold change [2, 3]: 0.68 | bta-miR-1814c Fold change [2, 3]: −1.77 | bta-miR-1814c Log2 fold change [2, 3]: −0.83 | hsa-miR-155-5p Fold change [2, 3]: 1.89 | hsa-miR-155-5p Log2 fold change [2, 3]: 0.92 | bta-miR-146b Fold change [2, 4]: 1.56 | bta-miR-146b Log2 fold change [2, 4]: 0.64 | bta-miR-148a Fold change [2, 4]: −1.44 | bta-miR-148a Log2 fold change [2, 4]: −0.52 | bta-miR-181b Fold change [2, 4]: 1.76 | bta-miR-181b Log2 fold change [2, 4]: 0.82 | bta-miR-1814c Fold change [2, 4]: −2.05 | bta-miR-1814c Log2 fold change [2, 4]: −1.04 | hsa-miR-155-5p Fold change [2, 4]: 2.20 | hsa-miR-155-5p Log2 fold change [2, 4]: 1.14 | bta-miR-146b Fold change [2, 5]: 4.52 | bta-miR-146b Log2 fold change [2, 5]: 2.18 | hsa-miR-146b-5p Fold change [2, 5]: 2.27 | hsa-miR-146b-5p Log2 fold change [2, 5]: 1.18 | bta-miR-146b Fold change [2, 6]: 4.34 | bta-miR-146b Log2 fold change [2, 6]: 2.12 | hsa-miR-146b-5p Fold change [2, 6]: 1.71 | hsa-miR-146b-5p Log2 fold change [2, 6]: 0.77 | bta-miR-27a-3p Fold change [2, 7]: −1.31 | bta-miR-27a-3p Log fold change [2, 7]: −0.39 | bta-miR-29a Fold change [2, 7]: −1.36 | bta-miR-29a Log fold change [2, 7]: −0.44 | bta-miR-29c Fold change [2, 7]: −1.45 | bta-miR-29c Log fold change [2, 7]: −0.54 | bta-miR-30f Fold change [2, 7]: 1.57 | bta-miR-30f Log fold change [2, 7]: 0.65 | bta-miR-92b Fold change [2, 7]: 1.52 | bta-miR-92b Log fold change [2, 7]: 0.60 | bta-miR-101 Fold change [2, 7]: −1.47 | bta-miR-101 Log fold change [2, 7]: −0.55 | bta-miR-142-5p Fold change [2, 7]: −1.43 | bta-miR-142-5p Log fold change [2, 7]: −0.51 | bta-miR-148a Fold change [2, 7]: −1.78 | bta-miR-148a Log fold change [2, 7]: −0.83 | bta-miR-148b Fold change [2, 7]: −1.43 | bta-miR-148b Log fold change [2, 7]: −0.51 | bta-miR-149-5p Fold change [2, 7]: 1.43 | bta-miR-149-5p Log fold change [2, 7]: 0.52 | bta-miR-181b Fold change [2, 7]: 1.38 | bta-miR-181b Log fold change [2, 7]: 0.47 | bta-miR-184 Fold change [2, 7]: 2.61 | bta-miR-184 Log fold change [2, 7]: 1.38 | bta-miR-187 Fold change [2, 7]: −2.07 | bta-miR-187 Log fold change [2, 7]: −1.05 | bta-miR-193a-5p Fold change [2, 7]: 1.60 | bta-miR-193a-5p Log fold change [2, 7]: 0.68 | bta-miR-197 Fold change [2, 7]: 1.37 | bta-miR-197 Log fold change [2, 7]: 0.46 | bta-miR-199a-3p Fold change [2, 7]: 1.92 | bta-miR-199a-3p Log fold change [2, 7]: 0.94 | bta-miR-296-5p Fold change [2, 7]: 2.10 | bta-miR-296-5p Log fold change [2, 7]: 1.07 | bta-miR-320a Fold change [2, 7]: 1.68 | bta-miR-320a Log fold change [2, 7]: 0.75 | bta-miR-326 Fold change [2, 7]: 1.47 | bta-miR-326 Log fold change [2, 7]: 0.55 | bta-miR-331-3p Fold change [2, 7]: 1.61 | bta-miR-331-3p Log fold change [2, 7]: 0.69 | bta-miR-365-3p Fold change [2, 7]: 1.59 | bta-miR-365-3p Log fold change [2, 7]: 0.67 | bta-miR-374a Fold change [2, 7]: −1.59 | bta-miR-374a Log fold change [2, 7]: −0.67 | bta-miR-500 Fold change [2, 7]: 1.43 | bta-miR-500 Log fold change [2, 7]: 0.51 | bta-miR-652 Fold change [2, 7]: 1.46 | bta-miR-652 Log fold change [2, 7]: 0.54 | bta-miR-877 Fold change [2, 7]: 1.93 | bta-miR-877 Log fold change [2, 7]: 0.95 | bta-miR-1249 Fold change [2, 7]: 1.43 | bta-miR-1249 Log fold change [2, 7]: 0.52 | bta-miR-1260b Fold change [2, 7]: 1.63 | bta-miR-1260b Log fold change [2, 7]: 0.70 | bta-miR-1307 Fold change [2, 7]: 1.49 | bta-miR-1307 Log fold change [2, 7]: 0.57 | bta-miR-2285bf Fold change [2, 7]: −1.52 | bta-miR-2285bf Log fold change [2, 7]: −0.61 | bta-miR-2447 Fold change [2, 7]: 1.92 | bta-miR-2447 Log fold change [2, 7]: 0.94 | bta-miR-6523a Fold change [2, 7]: 1.39 | bta-miR-6523a Log fold change [2, 7]: 0.47 | bta-miR-6529a Fold change [2, 7]: 1.32 | bta-miR-6529a Log fold change [2, 7]: 0.40 | hsa-let-7d-3p Fold change [2, 7]: 1.62 | hsa-let-7d-3p Log fold change [2, 7]: 0.70 | hsa-miR-30e-5p Fold change [2, 7]: −1.45 | hsa-miR-30e-5p Log fold change [2, 7]: −0.54 | hsa-miR-16-1-3p Fold change [2, 7]: −2.57 | hsa-miR-16-1-3p Log fold change [2, 7]: −1.36 | hsa-miR-21-5p Fold change [2, 7]: −1.33 | hsa-miR-21-5p Log fold change [2, 7]: −0.41 | hsa-miR-29a-3p Fold change [2, 7]: −1.32 | hsa-miR-29a-3p Log fold change [2, 7]: 0.40 | hsa-miR-29b-1-5p Fold change [2, 7]: 1.90 | hsa-miR-29b-1-5p Log fold change [2, 7]: 0.92 | hsa-miR-142-3p Fold change [2, 7]: −1.57 | hsa-miR-142-3p Log fold change [2, 7]: −0.65 | hsa-miR-142-5p Fold change [2, 7]: −1.55 | hsa-miR-142-5p Log fold change [2, 7]: −0.63 | hsa-miR-143-3p Fold change [2, 7]: −1.96 | hsa-miR-143-3p Log fold change [2, 7]: −0.97 | hsa-miR-152-3p Fold change [2, 7]: −1.37 | hsa-miR-152-3p Log fold change [2, 7]: 0.45 | hsa-miR-155-5p Fold change [2, 7]: 1.31 | hsa-miR-155-5p Log fold change [2, 7]: 0.39 | hsa-miR-192-5p Fold change [2, 7]: −1.47 | hsa-miR-192-5p Log fold change [2, 7]: −0.56 | hsa-miR-340-5p Fold change [2, 7]: −1.47 | hsa-miR-340-5p Log fold change [2, 7]: −0.56 | hsa-miR-532-3p Fold change [2, 7]: 1.51 | hsa-miR-532-3p Log fold change [2, 7]: 0.60 | hsa-miR-574-3p Fold change [2, 7]: 1.36 | hsa-miR-574-3p Log fold change [2, 7]: 0.44 | hsa-miR-1260b Fold change [2, 7]: 2.19 | hsa-miR-1260b Log fold change [2, 7]: 1.13 | hsa-miR-9983-3p Fold change [2, 7]: −1.40 | hsa-miR-9983-3p Log fold change [2, 7]: 0.48 | hsa-miR-10395-3p Fold change [2, 7]: −2.92 | hsa-miR-10395-3p Log fold change [2, 7]: −1.55 | hsa-miR-12135 Fold change [2, 7]: −1.63 | hsa-miR-12135 Log fold change [2, 7]: −0.71 | Number of miRNAs significantly altered ([2]; after rest period, prior to LPS challenge): 51
